Legend:
Experiment in all cases: relative viability (nuclei count vs DMSO), 5 days (fraction); higher = more cells survive
[1] = compound: C1=CC2=NC=CN=C2C=C1/C=C/3\C(=O)NC(=O)S3 + Nc1ncn([C@H]2C[C@H](O)[C@@H](CO)O2)c(=O)n1 [Decitabine] (partner 2 µM)
Procedure, shortened: (§1)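 Dosing by pin tool came one day after lung cancer cell lines were seeded in 1536-well plates, using either one drug or a fixed anchor-drug dose plus five library-drug doses (not always all listed) in √10 steps. After 5 days, nuclei were counted on 4× images. Relative viability is treated-well nuclei count divided by vehicle-well nuclei count, and values are medians of duplicate plates.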

[2] = compound: C1=CC2=NC=CN=C2C=C1/C=C/3\C(=O)NC(=O)S3 + O=C(CCCCCCC(=O)Nc1ccccc1)NO [Vorinostat] (partner 1 µM)
Procedure, shortened: as §1

[3] = compound: CCN1CCN(c2ccc(Nc3cc(N(C)C(=O)Nc4c(Cl)c(OC)cc(OC)c4Cl)ncn3)cc2)CC1 [BGJ398] + CS(=O)(=O)CCNCc1ccc(-c2ccc3ncnc(Nc4ccc(OCc5cccc(F)c5)c(Cl)c4)c3c2)o1 [Lapatinib] (partner 2 µM)
Procedure, shortened: as §1

[4] = compound: CCN1CCN(c2ccc(Nc3cc(N(C)C(=O)Nc4c(Cl)c(OC)cc(OC)c4Cl)ncn3)cc2)CC1 [BGJ398] + Cc1nc(NC(=O)N2CCC[C@H]2C(N)=O)sc1-c1ccnc(C(C)(C)C(F)(F)F)c1 [Alpelisib] (partner 2 µM)
Procedure, shortened: as §1

Cell Line | relative viability ([1]; first compound 0.02 µM) | relative viability ([1]; first compound 0.06325 µM) | relative viability ([1]; first compound 0.2 µM) | relative viability ([1]; first compound 0.6325 µM) | relative viability ([1]; first compound 2 µM) | relative viability ([2]; first compound 0.02 µM) | relative viability ([2]; first compound 0.06325 µM) | relative viability ([2]; first compound 0.2 µM) | relative viability ([2]; first compound 0.6325 µM) | relative viability ([2]; first compound 2 µM) | relative viability ([3]; first compound 0.01 µM) | relative viability ([3]; first compound 0.03162 µM) | relative viability ([3]; first compound 0.1 µM) | relative viability ([3]; first compound 0.3162 µM) | relative viability ([3]; first compound 1 µM) | relative viability ([4]; first compound 0.01 µM) | relative viability ([4]; first compound 0.03162 µM) | relative viability ([4]; first compound 0.1 µM) | relative viability ([4]; first compound 0.3162 µM) | relative viability ([4]; first compound 1 µM)
NCI-H2405 | 0.686 | 0.818 | 0.751 | 0.793 | 0.586 | 1.04 | 1.14 | 1.11 | 1.08 | 0.526 | 1.15 | 1.32 | 1.05 | 1.07 | 0.857 | 0.723 | 0.932 | 0.831 | 0.79 | 0.875
NCI-H3122 | 0.434 | 0.431 | 0.468 | 0.459 | 0.403 | 0.926 | 0.981 | 1.03 | 1.07 | 1.05 | 0.97 | 1.03 | 1.03 | 1.07 | 1.08 | 0.835 | 0.844 | 0.763 | 0.717 | 0.832
PC-3 [JPC-3] | 0.785 | 0.911 | 0.822 | 0.801 | 0.868 | 0.939 | 0.874 | 0.92 | 0.766 | 0.654 | 0.44 | – | 0.412 | 0.478 | 0.348 | 1.05 | – | 1.04 | 0.948 | 0.973
PC-14 | 0.242 | 0.272 | 0.237 | 0.204 | 0.275 | 0.799 | 0.713 | 1.01 | 0.689 | 0.571 | 0.282 | 0.255 | 0.352 | 0.251 | 0.31 | 0.824 | 0.845 | 0.98 | 0.958 | 0.938
RERF-LC-KJ | 0.596 | 0.726 | 0.681 | 0.632 | 0.628 | 0.714 | 0.717 | 0.689 | 0.63 | 0.635 | 0.86 | 0.88 | 0.908 | 0.924 | 0.724 | 0.922 | 0.85 | 0.816 | 0.833 | 0.79
SK-LU-1 | 0.597 | 0.712 | 0.74 | 0.639 | 0.596 | 0.809 | 0.818 | 0.881 | 0.777 | 0.72 | 0.878 | 1.07 | 0.979 | 0.702 | 0.945 | 0.939 | 0.885 | 1.02 | 0.971 | 0.796
SK-MES-1 | 0.353 | 0.403 | 0.437 | 0.357 | 0.331 | 0.925 | 0.998 | 1.08 | 1.08 | 0.829 | 0.414 | 0.44 | 0.448 | 0.396 | 0.376 | 0.826 | 1 | 0.815 | 0.866 | 0.57
SW 1573 | 0.506 | 0.65 | 0.603 | 0.544 | 0.367 | 0.519 | 1.09 | 0.658 | 0.868 | 0.444 | 1.03 | 1.12 | 1.08 | 1.02 | 0.984 | 0.689 | 0.961 | 0.765 | 0.761 | 0.789

Reference: the supplement of paper PMC10307832
